From patent publication US20120165403A1, “METHODS OF INHIBITING THE ACTIVITY OF HSP90 AND/OR ARYL HYDROCARBON RECEPTOR” (UNIVERSITY OF ROCHESTER, priority 2004, published 2012)

Target: T1, AhR (Mus musculus, UniProt P30561)
T1 construct: made in house; host or cells: TNT rabbit reticulocyte lysate
T1 sequence (P30561 10-805 limits assumed): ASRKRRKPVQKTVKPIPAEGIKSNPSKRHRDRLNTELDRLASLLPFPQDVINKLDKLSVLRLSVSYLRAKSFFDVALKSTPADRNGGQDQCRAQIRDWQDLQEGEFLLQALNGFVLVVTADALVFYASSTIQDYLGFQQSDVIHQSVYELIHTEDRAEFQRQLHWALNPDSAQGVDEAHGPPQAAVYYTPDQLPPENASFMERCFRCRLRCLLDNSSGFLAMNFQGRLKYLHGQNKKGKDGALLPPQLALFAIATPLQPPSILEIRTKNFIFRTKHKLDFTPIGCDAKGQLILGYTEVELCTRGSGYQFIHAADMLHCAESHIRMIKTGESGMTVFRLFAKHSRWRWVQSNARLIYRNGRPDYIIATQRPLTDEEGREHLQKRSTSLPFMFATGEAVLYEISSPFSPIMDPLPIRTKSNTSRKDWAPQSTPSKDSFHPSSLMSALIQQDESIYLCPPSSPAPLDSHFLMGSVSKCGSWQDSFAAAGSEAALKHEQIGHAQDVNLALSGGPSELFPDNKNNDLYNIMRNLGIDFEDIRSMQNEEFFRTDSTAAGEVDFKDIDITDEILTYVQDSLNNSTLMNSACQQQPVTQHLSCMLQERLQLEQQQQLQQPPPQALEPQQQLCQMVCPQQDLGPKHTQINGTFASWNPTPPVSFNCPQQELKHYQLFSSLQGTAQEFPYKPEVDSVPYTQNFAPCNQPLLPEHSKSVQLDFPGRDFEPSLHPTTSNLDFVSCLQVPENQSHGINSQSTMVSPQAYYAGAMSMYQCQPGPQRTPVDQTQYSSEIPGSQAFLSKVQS
Assay: DNA binding of in vitro translated AhR and ARNT in RRL
Format: biochemical
Text: The data provided above implicate a model where EGCG inhibits release of hsp90 from the AhR complex. This form of hsp90 appears to maintain its interaction with XAP2 (FIG. 4). However, from the above data, it remains to be determined whether 1) the hsp90-XAP2 complex remains bound to the AhR upon EGCG treatment, 2) EGCG prevents ARNT dimerization, 3) EGCG stabilizes the receptor in a different complex upon additional treatment with TCDD, and 4) if other proteins are present in this complex. Findings from the above investigations add some useful insight into the mechanism of action of EGCG. The mouse AhR used for these studies was in vitro transcribed in rabbit reticulocyte lysate (RRL) and immunoprecipitated using an antibody specific for amino acids 12-31. Although this antibody could precipitate the latent and TCDD-activated AhR complex from RRL, it was incapable of precipitating an EGCG-treated AhR. […] Furthermore, titration of Hepa cytosol into the RRL system restored the ability to immunoprecipitate ^35S-methionine-labeled in vitro transcribed AhR. Similar discrepancies between systems were observed utilizing DNA binding as an endpoint. […] This is in direct contrast to the lack of AhR transformation by EGCG observed in Hepa cytosol (FIG. 7). […] This EGCG-induced DNA binding complex could also be attenuated upon titration of Hepa cytosol into RRL. […]

Structure (SMILES): O=C(O[C@@H]1Cc2c(O)cc(O)cc2O[C@@H]1c1cc(O)c(O)c(O)c1)c1cc(O)c(O)c(O)c1 [EGCG, epigallocatechin gallate]
- DNA binding of AhR and ARNT, treatment alone: formation of a strong DRE-AhR-ARNT shifted complex
